{"source": "paper PMC5218480", "about": "(PLoS ONE, 2017)", "test_system": "MV-4-11 cells", "assay": "Gene expression microarray analysis (Affymetrix PrimeView) and GSEA", "type": "cell-based, human", "set-up": "RFU PODN (11730768_x_at) / Fold change /veh PODN (11730768_x_at) / RFU LINC00158 (11744669_a_at) / Fold change /veh LINC00158 (11744669_a_at) / RFU DUSP10 (11751237_a_at) / Fold change /veh DUSP10 (11751237_a_at) / RFU ID3 (11757404_x_at) / Fold change /veh ID3 (11757404_x_at) / RFU PLEKHG5 (11737974_s_at) / Fold change /veh PLEKHG5 (11737974_s_at) / RFU LRRC4B (11730491_at) / Fold change /veh LRRC4B (11730491_at) / RFU GIMAP4 (11747438_a_at) / Fold change /veh GIMAP4 (11747438_a_at) / RFU KRT8 (11758183_x_at) / Fold change /veh KRT8 (11758183_x_at) / RFU CNN1 (11734310_a_at) / Fold change /veh CNN1 (11734310_a_at) / RFU VPS37D (11726825_at) / Fold change /veh VPS37D (11726825_at) / RFU C10orf10 (11716522_x_at) / Fold change /veh C10orf10 (11716522_x_at) / RFU KIR2DL2 /// KIR2DL4 /// KIR2DL5A /// KIR2DL5B /// KIR2DS1 /// KIR2DS2 /// KIR2DS3 /// KIR2DS4 /// KIR3DL3 /// KIR3DL3 /// KIR3DS1 (11738374_at) / Fold change /veh KIR2DL2 /// KIR2DL4 /// KIR2DL5A /// KIR2DL5B /// KIR2DS1 /// KIR2DS2 /// KIR2DS3 /// KIR2DS4 /// KIR3DL3 /// KIR3DL3 /// KIR3DS1 (11738374_at) / RFU C1QL1 (11718748_at) / Fold change /veh C1QL1 (11718748_at) / RFU TMPRSS4 (11747572_a_at) / Fold change /veh TMPRSS4 (11747572_a_at) / RFU HAMP (11756126_x_at) / Fold change /veh HAMP (11756126_x_at) / RFU RNFT2 (11725882_a_at) / Fold change /veh RNFT2 (11725882_a_at) / RFU NR4A2 (11747474_a_at) / Fold change /veh NR4A2 (11747474_a_at) / RFU ABCC12 (11746883_a_at) / Fold change /veh ABCC12 (11746883_a_at) / RFU TMEM136 (11760407_x_at) / Fold change /veh TMEM136 (11760407_x_at) / RFU CLDN22 /// WWC2 (11732394_at) / Fold change /veh CLDN22 /// WWC2 (11732394_at) / RFU HLA-DPB1 (11760878_x_at) / Fold change /veh HLA-DPB1 (11760878_x_at) / RFU SPINT1 (11716480_a_at) / Fold change /veh SPINT1 (11716480_a_at) / RFU GAP43 (11754022_s_at) / Fold change /veh GAP43 (11754022_s_at) / RFU A4GNT (11735810_at) / Fold change /veh A4GNT (11735810_at) / RFU PRB3 (11715151_x_at) / Fold change /veh PRB3 (11715151_x_at) / RFU TUBB4B (11761932_at) / Fold change /veh TUBB4B (11761932_at) / RFU CAPN14 (11732068_a_at) / Fold change /veh CAPN14 (11732068_a_at) / RFU TMCC2 (11721928_a_at) / Fold change /veh TMCC2 (11721928_a_at) / RFU IRGQ (11745062_a_at) / Fold change /veh IRGQ (11745062_a_at) / RFU FAM174B (11720279_a_at) / Fold change /veh FAM174B (11720279_a_at) / RFU TMPRSS4 (11748680_a_at) / Fold change /veh TMPRSS4 (11748680_a_at) / RFU FAM212B (11763350_a_at) / Fold change /veh FAM212B (11763350_a_at) / RFU PLEKHG5 (11743358_a_at) / Fold change /veh PLEKHG5 (11743358_a_at) / RFU ZSCAN30 (11745921_a_at) / Fold change /veh ZSCAN30 (11745921_a_at) / RFU CMKLR1 (11741424_a_at) / Fold change /veh CMKLR1 (11741424_a_at) / RFU LOC101060620 /// MAPK8IP1 (11723275_at) / Fold change /veh LOC101060620 /// MAPK8IP1 (11723275_at) / RFU SPTSSB (11747773_x_at) / Fold change /veh SPTSSB (11747773_x_at) / RFU PRSS12 (11739890_at) / Fold change /veh PRSS12 (11739890_at) / RFU BIN1 (11741810_x_at) / Fold change /veh BIN1 (11741810_x_at) / RFU WNT11 (11732464_a_at) / Fold change /veh WNT11 (11732464_a_at) / RFU C10orf10 (11716521_a_at) / Fold change /veh C10orf10 (11716521_a_at) / RFU C5orf56 (11738089_at) / Fold change /veh C5orf56 (11738089_at) / RFU CYB561 (11721691_x_at) / Fold change /veh CYB561 (11721691_x_at) / RFU ANKRD19P (11752326_a_at) / Fold change /veh ANKRD19P (11752326_a_at) / RFU OR2T12 /// OR2T33 /// OR2T8 (11738714_s_at) / Fold change /veh OR2T12 /// OR2T33 /// OR2T8 (11738714_s_at) / RFU VCAN (11748164_a_at) / Fold change /veh VCAN (11748164_a_at) / RFU JSRP1 (11732532_at) / Fold change /veh JSRP1 (11732532_at) / RFU KRTAP10-11 (11738290_x_at) / Fold change /veh KRTAP10-11 (11738290_x_at) / RFU MYO3A (11730013_a_at) / Fold change /veh MYO3A (11730013_a_at) / RFU EBF3 (11725865_a_at) / Fold change /veh EBF3 (11725865_a_at) / RFU CAMK2N1 (11719241_x_at) / Fold change /veh CAMK2N1 (11719241_x_at) / RFU C5orf56 (11738088_a_at) / Fold change /veh C5orf56 (11738088_a_at) / RFU OLFML3 (11715873_a_at) / Fold change /veh OLFML3 (11715873_a_at) / RFU LOC100653217 /// NTM (11731650_a_at) / Fold change /veh LOC100653217 /// NTM (11731650_a_at) / RFU MAPK11 (11762145_a_at) / Fold change /veh MAPK11 (11762145_a_at) / RFU FIZ1 (11724087_x_at) / Fold change /veh FIZ1 (11724087_x_at) / RFU OASL (11726364_x_at) / Fold change /veh OASL (11726364_x_at) / RFU SOX15 (11748057_x_at) / Fold change /veh SOX15 (11748057_x_at) / RFU CD79A (11719716_a_at) / Fold change /veh CD79A (11719716_a_at) / RFU HIST1H1D (11736915_at) / Fold change /veh HIST1H1D (11736915_at) / RFU CASKIN2 (11723855_a_at) / Fold change /veh CASKIN2 (11723855_a_at) / RFU LOC730098 (11760151_x_at) / Fold change /veh LOC730098 (11760151_x_at) / RFU OR4N2 (11742367_at) / Fold change /veh OR4N2 (11742367_at) / RFU PRRT2 (11749266_a_at) / Fold change /veh PRRT2 (11749266_a_at) / RFU SNX32 (11753110_a_at) / Fold change /veh SNX32 (11753110_a_at) / RFU CDHR5 (11726645_a_at) / Fold change /veh CDHR5 (11726645_a_at) / RFU RCAN1 (11760418_a_at) / Fold change /veh RCAN1 (11760418_a_at) / RFU FAM167A (11723789_a_at) / Fold change /veh FAM167A (11723789_a_at) / RFU FAM26E (11764081_at) / Fold change /veh FAM26E (11764081_at) / RFU ISYNA1 (11749810_s_at) / Fold change /veh ISYNA1 (11749810_s_at) / RFU ACY1 (11761880_at) / Fold change /veh ACY1 (11761880_at) / RFU 11764098_at / Fold change /veh 11764098_at / RFU SAMD14 (11745864_x_at) / Fold change /veh SAMD14 (11745864_x_at) / RFU NPB (11741838_a_at) / Fold change /veh NPB (11741838_a_at) / RFU TMPRSS6 (11731388_a_at) / Fold change /veh TMPRSS6 (11731388_a_at) / RFU KRTAP10-2 (11738614_at) / Fold change /veh KRTAP10-2 (11738614_at) / RFU ARHGAP8 /// PRR5-ARHGAP8 (11727945_x_at) / Fold change /veh ARHGAP8 /// PRR5-ARHGAP8 (11727945_x_at) / RFU KRTAP5-7 /// NADSYN1 (11734609_at) / Fold change /veh KRTAP5-7 /// NADSYN1 (11734609_at) / RFU RASL12 (11751679_a_at) / Fold change /veh RASL12 (11751679_a_at) / RFU CDKN2B (11736163_a_at) / Fold change /veh CDKN2B (11736163_a_at) / RFU PRF1 (11729649_at) / Fold change /veh PRF1 (11729649_at) / RFU, ZNF638 /// ZNF638-IT1 / Fold change vs veh, ZNF638 /// ZNF638-IT1 / RFU, PANK3 / Fold change vs veh, PANK3 / RFU, SH3YL1 / Fold change vs veh, SH3YL1 / RFU, ZEB2 / Fold change vs veh, ZEB2 / RFU, NRIP1 / Fold change vs veh, NRIP1 / RFU, PTTG1IP / Fold change vs veh, PTTG1IP / RFU, CAPN2 / Fold change vs veh, CAPN2 / RFU, MED14 / Fold change vs veh, MED14 / RFU, SNORA58 / Fold change vs veh, SNORA58 / RFU, C1orf63 / Fold change vs veh, C1orf63 / RFU, LRRFIP1 / Fold change vs veh, LRRFIP1 / RFU, NDUFAF7 / Fold change vs veh, NDUFAF7 / RFU, SLC12A2 / Fold change vs veh, SLC12A2 / RFU, IBTK / Fold change vs veh, IBTK / RFU, ESF1 / Fold change vs veh, ESF1 / Fold change vs veh, TMEM50B / RFU, TAOK1 / Fold change vs veh, TAOK1 / RFU, ACBD3 / Fold change vs veh, ACBD3 / RFU, TMA16 / Fold change vs veh, TMA16 / RFU, RWDD3 / Fold change vs veh, RWDD3 / RFU, BCAT1 / Fold change vs veh, BCAT1 / RFU, EDEM3 / Fold change vs veh, EDEM3 / RFU, TMEM33 / Fold change vs veh, TMEM33 / RFU, WDR75 / Fold change vs veh, WDR75 / RFU, AHCTF1 / Fold change vs veh, AHCTF1 / RFU, TFRC / Fold change vs veh, TFRC / RFU, ZDHHC17 / Fold change vs veh, ZDHHC17 / RFU, NOM1 / Fold change vs veh, NOM1 / RFU, ARL8B / Fold change vs veh, ARL8B / RFU, ZBTB11 / Fold change vs veh, ZBTB11 / RFU, TAMM41 / Fold change vs veh, TAMM41 / RFU, KIAA1704 /// LOC100996395 / Fold change vs veh, KIAA1704 /// LOC100996395 / RFU, ING1 / Fold change vs veh, ING1 / RFU, TRMT61B / Fold change vs veh, TRMT61B / RFU, FUBP3 / Fold change vs veh, FUBP3 / RFU, TP53 / Fold change vs veh, TP53 / RFU, TNKS2 / Fold change vs veh, TNKS2 / RFU, ZFP14 / Fold change vs veh, ZFP14 / RFU, ACTR2 / Fold change vs veh, ACTR2 / RFU, PPP3R1 / Fold change vs veh, PPP3R1 / RFU, PIK3R1 / Fold change vs veh, PIK3R1 / RFU, HNRNPA1 / Fold change vs veh, HNRNPA1 / RFU, RNF170 / Fold change vs veh, RNF170 / RFU, ZNF28 / Fold change vs veh, ZNF28 / RFU, RNGTT / Fold change vs veh, RNGTT / RFU, OGT / Fold change vs veh, OGT / RFU, BRD1 / Fold change vs veh, BRD1 / RFU, MARS / Fold change vs veh, MARS / RFU, ZNF655 / Fold change vs veh, ZNF655 / RFU, FAHD1 / Fold change vs veh, FAHD1 / RFU, BDP1 / Fold change vs veh, BDP1 / RFU, LRRCC1 / Fold change vs veh, LRRCC1 / RFU, ARID1A / Fold change vs veh, ARID1A / RFU, ZNF146 / Fold change vs veh, ZNF146 / RFU, ZNF330 / Fold change vs veh, ZNF330 / RFU, GPN3 / Fold change vs veh, GPN3 / RFU, C9orf123 / Fold change vs veh, C9orf123 / RFU, N4BP2L2 / Fold change vs veh, N4BP2L2 / RFU, ARFIP1 / Fold change vs veh, ARFIP1 / RFU, FAM179B / Fold change vs veh, FAM179B / RFU, BCL10 / Fold change vs veh, BCL10 / RFU, UHRF1BP1L / Fold change vs veh, UHRF1BP1L / RFU, BET1 / Fold change vs veh, BET1 / RFU, CNOT2 / Fold change vs veh, CNOT2 / RFU, ZNF268 / Fold change vs veh, ZNF268 / Fold change vs veh, ZNF507 / RFU, DGCR2 / Fold change vs veh, DGCR2 / RFU, WDSUB1 / Fold change vs veh, WDSUB1 / Fold change vs veh, HSP90B1 /// MIR3652 / RFU, ADSS / Fold change vs veh, ADSS / RFU, GK / Fold change vs veh, GK / RFU, ZNF148 / Fold change vs veh, ZNF148 / RFU, TAF9 / Fold change vs veh, TAF9 / RFU, SLC1A5 / Fold change vs veh, SLC1A5 / RFU, SLMO2 / Fold change vs veh, SLMO2 / RFU, ABCC4 / Fold change vs veh, ABCC4 / RFU, LOC101060439 /// RAP1B / Fold change vs veh, LOC101060439 /// RAP1B / RFU, RFX7 / Fold change vs veh, RFX7 / RFU, GTPBP10 / Fold change vs veh, GTPBP10 / RFU, CNEP1R1 / Fold change vs veh, CNEP1R1 / RFU, BIVM-ERCC5 /// ERCC5 / Fold change vs veh, BIVM-ERCC5 /// ERCC5 / RFU, ILF3 / Fold change vs veh, ILF3 / RFU 11762660_at / Fold change /veh 11762660_at / RFU VCAN (11757783_s_at) / Fold change /veh VCAN (11757783_s_at) / RFU DDX43 (11728927_at) / Fold change /veh DDX43 (11728927_at) / RFU KRT8 (11758188_x_at) / Fold change /veh KRT8 (11758188_x_at) / RFU NKD1 (11759106_at) / Fold change /veh NKD1 (11759106_at) / RFU SRD5A1 (11742802_a_at) / Fold change /veh SRD5A1 (11742802_a_at) / RFU TPSAB1 /// TPSB2 (11721975_s_at) / Fold change /veh TPSAB1 /// TPSB2 (11721975_s_at) / RFU GSTM3 (11746129_a_at) / Fold change /veh GSTM3 (11746129_a_at) / RFU IL23R (11737362_x_at) / Fold change /veh IL23R (11737362_x_at) / RFU TMEM51 (11727254_a_at) / Fold change /veh TMEM51 (11727254_a_at) / RFU PIWIL2 (11732686_x_at) / Fold change /veh PIWIL2 (11732686_x_at) / RFU ORM1 (11744905_x_at) / Fold change /veh ORM1 (11744905_x_at) / RFU CCDC152 (11743942_at) / Fold change /veh CCDC152 (11743942_at) / RFU ECM1 (11717891_a_at) / Fold change /veh ECM1 (11717891_a_at) / RFU IL23R (11748794_a_at) / Fold change /veh IL23R (11748794_a_at) / RFU TNFAIP8L3 (11732012_x_at) / Fold change /veh TNFAIP8L3 (11732012_x_at) / RFU MBOAT4 (11741988_at) / Fold change /veh MBOAT4 (11741988_at) / RFU 11764193_at / Fold change /veh 11764193_at / RFU TMEM53 (11763286_at) / Fold change /veh TMEM53 (11763286_at) / RFU MAGEB2 (11727129_at) / Fold change /veh MAGEB2 (11727129_at) / RFU TMEM200A (11744735_a_at) / Fold change /veh TMEM200A (11744735_a_at) / RFU CCDC152 (11751479_a_at) / Fold change /veh CCDC152 (11751479_a_at) / RFU FAM211A (11726209_a_at) / Fold change /veh FAM211A (11726209_a_at) / RFU RGS16 (11746705_a_at) / Fold change /veh RGS16 (11746705_a_at) / RFU VCAN (11755009_s_at) / Fold change /veh VCAN (11755009_s_at) / RFU RHOB (11743442_s_at) / Fold change /veh RHOB (11743442_s_at) / RFU RGS16 (11720943_a_at) / Fold change /veh RGS16 (11720943_a_at) / RFU RGS16 (11720944_at) / Fold change /veh RGS16 (11720944_at) / RFU, VPS4B / Fold change vs veh, VPS4B / RFU, CREB1 / Fold change vs veh, CREB1 / RFU, DNAJC13 / Fold change vs veh, DNAJC13 / RFU, GNAQ / Fold change vs veh, GNAQ / RFU, CDK5R1 / Fold change vs veh, CDK5R1 / RFU, ZRANB3 / Fold change vs veh, ZRANB3 / RFU, CUL4A / Fold change vs veh, CUL4A / RFU, CCNY / Fold change vs veh, CCNY / RFU, UFL1 / Fold change vs veh, UFL1 / RFU, COG3 / Fold change vs veh, COG3 / RFU, DIAPH2 / Fold change vs veh, DIAPH2 / RFU, SKA2 / Fold change vs veh, SKA2 / RFU, AFF3 / Fold change vs veh, AFF3 / RFU, LMF1 / Fold change vs veh, LMF1 / RFU, IPO11 / Fold change vs veh, IPO11 / RFU, DFFB / Fold change vs veh, DFFB / RFU, FOXP1 / Fold change vs veh, FOXP1 / RFU, CARD8 / Fold change vs veh, CARD8 / RFU, STRN3 / Fold change vs veh, STRN3 / RFU, ADK / Fold change vs veh, ADK / RFU, RASSF2 / Fold change vs veh, RASSF2 / RFU, WIPF1 / Fold change vs veh, WIPF1 / RFU, LARP1B / Fold change vs veh, LARP1B / RFU, RASA1 / Fold change vs veh, RASA1 / RFU, RB1 / Fold change vs veh, RB1 / RFU, PPFIA1 / Fold change vs veh, PPFIA1 / RFU, MAT2A / Fold change vs veh, MAT2A / RFU, CCT5 / Fold change vs veh, CCT5 / RFU, WDR92 / Fold change vs veh, WDR92 / RFU, CUX1 / Fold change vs veh, CUX1 / RFU, TTC7A / Fold change vs veh, TTC7A / RFU, TMEM135 / Fold change vs veh, TMEM135 / RFU, DEPTOR / Fold change vs veh, DEPTOR / RFU, CPM / Fold change vs veh, CPM / RFU, DNAJB6 / Fold change vs veh, DNAJB6 / RFU, CACNA2D3 / Fold change vs veh, CACNA2D3 / RFU, DTX4 / Fold change vs veh, DTX4 / RFU, TFCP2 / Fold change vs veh, TFCP2 / RFU, GMCL1 /// GMCL1P1 / Fold change vs veh, GMCL1 /// GMCL1P1 / RFU, AEBP2 / Fold change vs veh, AEBP2 / RFU, SNHG1 /// SNORD22 /// SNORD25 /// SNORD26 /// SNORD27 /// SNORD28 /// SNORD29 /// SNORD31 / Fold change vs veh, SNHG1 /// SNORD22 /// SNORD25 /// SNORD26 /// SNORD27 /// SNORD28 /// SNORD29 /// SNORD31 / Fold change (Aza/veh), C12orf56 (ProbeSet 11735607_a_at) / Fold change (ACY-1035/veh), C12orf56 (ProbeSet 11735607_a_at) / Fold change (Aza/veh), FGFR1OP (ProbeSet 11751329_s_at) / Fold change (ACY-1035/veh), FGFR1OP (ProbeSet 11751329_s_at) / Fold change (Aza/veh), VPS36 (ProbeSet 11739960_a_at) / Fold change (ACY-1035/veh), VPS36 (ProbeSet 11739960_a_at) / RFU SYPL1 (11715823_x_at) / Fold change /veh SYPL1 (11715823_x_at) / RFU IGFBP7 (11715501_s_at) / Fold change /veh IGFBP7 (11715501_s_at) / RFU REEP3 (11722064_at) / Fold change /veh REEP3 (11722064_at) / RFU IGLL1 (11728026_x_at) / Fold change /veh IGLL1 (11728026_x_at): dose or concentration left out as unconfirmed", "conditions": "ProbeSet 11724763_s_at; LIST D"}
{"molecule": "Nc1ncn([C@@H]2O[C@H](CO)[C@@H](O)[C@H]2O)c(=O)n1", "note": "[azacitidine]", "values": [{"measurement": "RFU, DEPTOR", "result": 80.20, "unit": "RFU"}]}
